Source: patent US12251422B2, “Compositions and methods for treating neurological and other disorders” (Rush University Medical Center, priority 2018, dated 2025)

Experiments:
[1] = molecular target: T1, interaction between TLR4 and MyD88 (Mus musculus, UniProt Q9QUK6); test: MyD88 immunoprecipitation / TLR4 western blot in BV-2 microglial cells; type: cell-based; details: BV-2 cells, peptide preincubated 1 h, LPS for 1 h, serum-free
T1 construct: endogenous in cells; host or cells: BV-2 microglial cells
T1 sequence (Q9QUK6 26-835): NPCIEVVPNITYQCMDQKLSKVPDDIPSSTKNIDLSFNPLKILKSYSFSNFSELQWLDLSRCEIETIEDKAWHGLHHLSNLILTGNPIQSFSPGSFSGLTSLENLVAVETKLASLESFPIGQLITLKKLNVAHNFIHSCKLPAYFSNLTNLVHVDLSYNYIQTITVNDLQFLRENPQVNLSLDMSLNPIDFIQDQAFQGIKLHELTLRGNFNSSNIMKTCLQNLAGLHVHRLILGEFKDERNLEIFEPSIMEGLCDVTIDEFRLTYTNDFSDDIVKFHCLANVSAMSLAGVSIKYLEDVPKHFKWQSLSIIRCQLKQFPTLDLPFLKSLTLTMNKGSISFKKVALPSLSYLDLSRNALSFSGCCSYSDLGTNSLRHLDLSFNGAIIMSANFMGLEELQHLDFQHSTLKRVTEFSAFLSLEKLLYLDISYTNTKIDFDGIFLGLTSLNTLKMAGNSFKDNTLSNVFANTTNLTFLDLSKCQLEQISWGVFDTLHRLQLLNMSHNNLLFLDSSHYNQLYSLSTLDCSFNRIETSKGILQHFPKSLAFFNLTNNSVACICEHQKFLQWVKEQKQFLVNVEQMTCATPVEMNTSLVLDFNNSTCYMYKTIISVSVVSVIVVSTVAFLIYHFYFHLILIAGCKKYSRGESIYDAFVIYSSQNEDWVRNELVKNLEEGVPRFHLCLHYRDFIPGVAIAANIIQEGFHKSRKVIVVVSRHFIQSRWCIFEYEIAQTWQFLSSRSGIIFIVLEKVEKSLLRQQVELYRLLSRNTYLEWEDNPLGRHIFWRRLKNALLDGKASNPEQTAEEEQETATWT
Description: (§1) FIG. 3(A-L). Selective disruption of TLR2 and MyD88 interaction by wtTIDM. In silico analyses of interactions of wtTIDM with TLR1, TLR4, TLR5, TLR6, TLR7, and TLR9. A rigid body interaction analyses were performed in pydock in silico analysis tool. […] G) BV-2 microglial cells preincubated with WtTIDM and mTIDM peptides for 1 h were stimulated with 1 μM fibrillar Aβ1-42 under serum-free condition. After 1 h, cellular extracts were immunoprecipitated with anti-MyD88 antibody followed by western blot of immunoprecipitates for TLR2. As control, cellular extracts were immunoprecipitated with normal IgG. Input was also immunoblotted with TLR2 and MyD88. H) Bands were scanned and values (TLR2/Input) presented as relative to control (n=2 replicates/condition in 3 independent experiments). Results were analyzed by two-sample t-tests. I) BV-2 microglial cells preincubated with wtTIDM and mTIDM peptides for 1 h were stimulated with LPS under serum-free condition. After 1 h, cellular extracts were immunoprecipitated with anti-MyD88 antibody followed by western blot of immunoprecipitates for TLR4. As control, cellular extracts were immunoprecipitated with normal IgG. Input was also immunoblotted with TLR4 and My D88. […] Results were analyzed by two-sample t-tests. […] Results were analyzed by two-sample t-tests.

[2] = tested on: 5×FAD Tg mice; test: Tau phosphorylation in hippocampus of 5×FAD Tg mice; type: in vivo, mouse; details: 0.1 mg/kg body wt/2 d intranasal, 30 d
Description: FIG. 22 (A-B). Intranasal delivery of wtTIDM, but not mTIDM, peptide decreases the phosphorylation of tau in the hippocampus of Tg mice. […] B) Bands were scanned and values (P-Tau/Tau) presented as relative to non-Tg control. Results were analyzed by two-sample t-tests.
B6SJL-Tg (APPSwFlLon,PSEN1*M146L*L286V) 6799Vas/J transgenic (5×FAD or termed here as Tg) mice were purchased from Jackson Laboratories (Bar Harbor, ME). […] Briefly, TIDM peptides were dissolved in 5 μl normal saline, mice were hold in supine position and saline was delivered into one nostril using a pipetman.

[3] = molecular target: T2, association between TLR2 and MyD88 (Mus musculus, UniProt Q9QUN7); test: MyD88 immunoprecipitation / TLR2 western blot in BV-2 microglial cells; type: cell-based; details: BV-2 cells, peptides preincubated 1 h, 1 μM fibrillar Aβ1-42 for 1 h, serum-free
T2 construct: disrupt the physical association between endogenous TLR2 and MyD88; endogenous in cells; host or cells: BV-2 microglial cells
T2 sequence (Q9QUN7 25-784): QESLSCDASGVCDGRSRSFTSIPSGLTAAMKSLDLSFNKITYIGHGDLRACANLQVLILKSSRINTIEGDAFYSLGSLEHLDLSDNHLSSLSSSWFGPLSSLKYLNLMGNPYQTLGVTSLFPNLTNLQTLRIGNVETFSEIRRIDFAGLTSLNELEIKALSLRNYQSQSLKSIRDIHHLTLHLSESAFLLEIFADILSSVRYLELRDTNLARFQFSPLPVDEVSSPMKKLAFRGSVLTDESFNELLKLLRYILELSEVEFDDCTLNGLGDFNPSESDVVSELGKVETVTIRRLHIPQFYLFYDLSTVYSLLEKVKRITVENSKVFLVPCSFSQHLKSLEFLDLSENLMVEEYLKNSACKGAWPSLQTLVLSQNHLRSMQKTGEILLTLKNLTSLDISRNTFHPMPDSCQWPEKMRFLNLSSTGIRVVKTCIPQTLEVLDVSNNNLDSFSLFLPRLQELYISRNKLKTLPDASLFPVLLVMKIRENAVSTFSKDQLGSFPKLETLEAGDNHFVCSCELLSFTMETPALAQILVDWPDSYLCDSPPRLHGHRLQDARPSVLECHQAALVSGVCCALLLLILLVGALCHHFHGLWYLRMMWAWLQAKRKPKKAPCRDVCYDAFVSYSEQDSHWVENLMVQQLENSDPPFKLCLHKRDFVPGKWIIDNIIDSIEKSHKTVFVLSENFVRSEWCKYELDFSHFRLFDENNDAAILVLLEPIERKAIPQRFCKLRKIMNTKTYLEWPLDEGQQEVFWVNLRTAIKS
Description: as §1

[4] = tested on: TNFα and IL-1β; test: TNFα and IL-1β ELISA in supernatants of WT primary microglia; type: cell-based, mouse; details: peptide 1 h, 1 μM fibrillar Aβ1-42 for 18 h
Description: (§2) FIG. 16 (A-F). […] Primary microglia isolated from WT (A) and TLR2 (−/−) (B) mice were treated with different concentrations of wtTIDM peptide for 1 h followed by stimulation with 1 μM fibrillar Aβ1-42 under serum-free condition. After 1 h of stimulation, the activation of NF-κB was monitored by EMSA. WT (C & D) and TLR2 (−/−) (E & F) microglia were treated with different concentrations of wtTIDM and mTIDM peptides for 1 h followed by stimulation with 1 μM fibrillar Aβ1-42 under serum-free condition. After 18 h of stimulation, levels of TNFα (C & E) and IL-1β (D & F) were monitored in supernatants by ELISA (n=2 replicates/condition in 3 independent experiments). ap<0.001 vs control; bp<0.001 vs stimuli by two-sample t-tests.

[5] = tested on: NF-κB; test: NF-κB activation by EMSA in primary microglia from WT mice; type: cell-based, mouse; details: peptide 1 h, 1 μM fibrillar Aβ1-42 for 1 h
Description: as §2
Nuclear extracts were isolated and EMSA was carried out as described before (22, 23).

Question: Which results are given for `CC[C@H](C)[C@H](NC(=O)[C@H](CCCCN)NC(=O)[C@@H](NC(=O)[C@H](CCC(N)=O)NC(=O)[C@H](CCCNC(=N)N)NC(=O)[C@@H](N)CC(=O)O)[C@@H](C)CC)C(=O)N[C@@H](Cc1c[nH]c2ccccc12)C(=O)N[C@@H](Cc1ccccc1)C(=O)N[C@@H](CCC(N)=O)C(=O)N[C@@H](CC(N)=O)C(=O)N[C@@H](CCCNC(=N)N)C(=O)N[C@@H](CCCNC(=N)N)C(=O)N[C@@H](CCSC)C(=O)N[C@@H](CCCCN)C(=O)N[C@@H](Cc1c[nH]c2ccccc12)C(=O)N[C@@H](CCCCN)C(=O)N[C@@H](CCCCN)C(=O)N1CCC[C@H]1C(=O)NCC(=O)N[C@@H](C)C(=O)N[C@@H](Cc1c[nH]cn1)C(=O)N[C@@H](CCC(N)=O)C(=O)N[C@@H](CCCCN)C(=O)O` [wtTIDM, drqikiwfqnrrmkwkkPGAHQK]?
Answer: effect on LPS-increased interaction between TLR4 and MyD88 [1]: had no effect; phospho-tau in the hippocampus [2]: suppression; total level of tau protein [2]: without affecting; inhibition of fibrillar Aβ1-42-increased association between TLR2 and MyD88 [3]: inhibited; inhibition of fibrillar Aβ1-42-induced production of TNFα and IL-1β in WT microglia [4]: inhibited; inhibition of fibrillar Aβ1-42-induced activation of NF-κB in WT primary microglia [5]: inhibited
